Patent US8563490B2, “Mild to the skin, foaming detergent composition” (Conopco, Inc., priority 2010, dated 2013)

Biological target: a-Chymotrypsin from bovine pancreas (Bos taurus, UniProt P00766)
Experimental: The basis of the mildness assay is the enzymatic activity of Chymotrypsin on a chromogenic substrate. Surfactant mildness is assessed by the effect of a surfactant on the enzyme protein. A harsh surfactant will degrade Chymotrypsin, leading to a lower optical density reading in the reaction well. The enzyme used for this assay is a-Chymotrypsin from bovine pancreas. The enzyme used is the chromogenic substrate for Chymotrypsin, N-Succinyl-Ala-Ala-Pro-Phe-pNA.
The basis of the surfactant protein mildness detecting assay used was the enzymatic activity of Chymotrypsin on a chromogenic substrate. A harsh surfactant degrades Chymotrypsin, leading to a lower absorbance reading. Any reading greater than 0.8% is taken to be a pass for mildness.
For the skin protein protection assay, 70 μl stock buffer solution (33 mM of Tris pH8.0, 180 mM of NaCl, 1 mM of CaCl2), 10 μl substrate stock solution (Ala-Ala-Pro-Phe-pNA; 4 mg/ml) and 20 μl enzyme (α-Chyotrypsin; 10 ng per well) were added to the wells of a 96-well plate together with 100 ul of the formulations pre-diluted 1:10 in water. Reaction mixes were incubated for 45 minutes before colorimetric measurements were taken at 405 nm by a SpectraMax plate reader.

## Saponin extract from Zizyphus joazero [hh]
  Mildness Lsmean (least squares mean of Absorbance values): 0.36
